Values quoted from earlier work in patent US7300768B2 (Saladax Biomedical Inc., priority 2004, dated 2007).

Conditions: imatinib and its salts; Gleevec package insert, Pindolia et al.

degree of intra- and inter-individual pharmacokinetic variability: four fold
SMILES: Cc1ccc(NC(=O)c2ccc(CN3CCN(C)CC3)cc2)cc1Nc1nccc(-c2cccnc2)n1 [imatinib]
